From paper PMC3463507 (ChemMedChem, 2012)
Where two headings read alike, the source gives them in different places.

Experiments:
[1] = target: T1, BaDHPS (Bacillus anthracis, UniProt Q81VW8); assay: biochemical; type: biochemical; conditions: for inhibition at 250 µM: read-out: Enzyme Inhibition Activity% @250μM
[2] = target: T1, BaDHPS; assay: biochemical; type: binding; conditions: for SPR kd: 25 °C; for kon: read-out: SPR ka
[3] = target: T1, BaDHPS; type: binding; conditions: 25 °C, pH 7.6

T1 sequence (Q81VW8 1-280): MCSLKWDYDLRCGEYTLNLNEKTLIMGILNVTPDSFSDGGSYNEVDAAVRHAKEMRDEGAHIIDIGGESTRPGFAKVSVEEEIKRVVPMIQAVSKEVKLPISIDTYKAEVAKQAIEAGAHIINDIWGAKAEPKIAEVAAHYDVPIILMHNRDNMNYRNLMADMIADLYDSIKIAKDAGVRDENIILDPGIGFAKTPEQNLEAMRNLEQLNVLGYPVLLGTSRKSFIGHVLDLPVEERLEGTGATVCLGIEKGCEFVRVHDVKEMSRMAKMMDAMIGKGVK

Structure (SMILES) | IC50 [1] | inhibition at 250 µM [1] | SPR kd [2] | Kd ([2]; SPR KD) | Kd ([2]; SPR KD(eq)) | kon [2] | ITC N (stoichiometry of the interaction) [3] | ITC ΔG [3] | ITC ΔH [3] | ITC −TΔS [3] | Kd ([2]; read-out: SPR KD) | Kd ([2]; read-out: SPR KD(eq))
Cn1nc(C(=O)O)c(=O)c2c(=O)[nH]c(N)nc21 [Compound 5, 7-Amino-1-methyl-4,5-dioxo-1,4,5,6-tetrahydropyrimido[4,5-c]pyridazine-3-carboxylic acid] | no detectable IC50 value | 32.4% |  |  |  |  |  |  |  |  |  | 
Cn1nc(CC(=O)O)c(=O)c2c(=O)[nH]c(N)nc21 [Compound 16, 2-(7-Amino-1-methyl-4,5-dioxo-1,4,5,6-tetrahydropyrimido[4,5-c]pyridazin-3-yl)acetic acid] | 32000 nM | 96% | 6.94(6) × 10^−2 s^−1 | 203 nM | 190 nM | 342000 M⁻¹ s⁻¹ |  |  |  |  |  | 
CC(CC(=O)O)c1nn(C)c2nc(N)[nH]c(=O)c2c1=O (stereo not shown) [Compound 17, 3-(7-Amino-1-methyl-4,5-dioxo-1,4,5,6-tetrahydropyrimido[4,5-c]pyridazin-3-yl)butanoic acid] | 145000 nM | 52.5% |  |  |  |  |  |  |  |  |  | 
Cn1nc(CCC(=O)O)c(=O)c2c(=O)[nH]c(N)nc21 [Compound 18, 3-(7-Amino-1-methyl-4,5-dioxo-1,4,5,6-tetrahydropyrimido[4,5-c]pyridazin-3-yl)propanoic acid] |  | 65% |  |  |  |  |  |  |  |  |  | 
CC(C(=O)O)c1n[nH]c2nc(N)[nH]c(=O)c2c1=O (stereo not shown) [Compound 19, 2-(7-Amino-4,5-dioxo-1,4,5,6-tetrahydropyrimido[4,5-c]pyridazin-3-yl)propanoic acid] |  | 95.3% | 4.39(3) × 10^−2 s^−1 | 120 nM | 123 nM | 366000 M⁻¹ s⁻¹ | 0.9 | -9.65 kcal/mol | -8.7 kcal/mol | -0.95 kcal/mol |  | 
COC(=O)CCc1n[nH]c2nc(N)[nH]c(=O)c2c1=O [Compound 22, Methyl 3-(7-amino-4,5-dioxo-1,4,5,6-tetrahydropyrimido[4,5-c]pyridazin-3-yl)propanoate] | 260000 nM | 33% |  |  |  |  |  |  |  |  |  | 
Nc1nc2[nH]nc(CC(=O)O)c(=O)c2c(=O)[nH]1 [Compound 23, 2-(7-Amino-4,5-dioxo-1,4,5,6-tetrahydropyrimido[4,5-c]pyridazin-3-yl)acetic acid] | 18000 nM | 91% | 4.35(3) × 10^−2 s^−1 | 104 nM | 110 nM | 419000 M⁻¹ s⁻¹ |  |  |  |  |  | 
CC(CC(=O)O)c1n[nH]c2nc(N)[nH]c(=O)c2c1=O (stereo not shown) [Compound 24, 3-(7-Amino-4,5-dioxo-1,4,5,6-tetrahydropyrimido[4,5-c]pyridazin-3-yl)butanoic acid] | 57000 nM | 75.8% | 3.39(1) × 10^−1 s^−1 |  |  | 643000 M⁻¹ s⁻¹ | 0.8 | -8.6 kcal/mol | -7.5 kcal/mol | -1.1 kcal/mol |  | 
Nc1nc2[nH]nc(CCC(=O)O)c(=O)c2c(=O)[nH]1 [Compound 25, 3-(7-Amino-4,5-dioxo-1,4,5,6-tetrahydropyrimido[4,5-c]pyridazin-3-yl)propanoic acid] | 36000 nM | 91.8% | 3.14(1) × 10^−1 s^−1 |  |  | 442000 M⁻¹ s⁻¹ | 0.7 | -8.94 kcal/mol | -10.4 kcal/mol | 1.46 kcal/mol | 710 nM | 713 nM
